Results: PubChem BioAssay (NCI)
Several values for one entry are separate records, joined by “and”; a condition that tells them apart may be missing. Equal entries are not always repeated.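 Method: 48-hour compound exposure of cells in 96-well plates, five concentrations, linear interpolation of endpoints. GI50 = concentration required for 50% inhibition of growth. TGI is the concentration that stops growth completely.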

What was measured:
Assay in all cases: growth of human tumour cells (NCI), 48 h
SF-539 CNS = test system: SF-539 CNS
TK-10 renal = test system: TK-10 renal
SK-MEL-28 melanoma = test system: SK-MEL-28 melanoma
SK-MEL-5 melanoma = test system: SK-MEL-5 melanoma
OVCAR-5 ovarian = test system: OVCAR-5 ovarian
HCT-15 colon = test system: HCT-15 colon
MDA-MB-231 breast = test system: MDA-MB-231 breast
NCI-H522 lung = test system: NCI-H522 lung

Row | Compound | GI50 (SF-539 CNS) | TGI (SF-539 CNS) | GI50 (TK-10 renal) | TGI (TK-10 renal) | GI50 (SK-MEL-28 melanoma) | TGI (SK-MEL-28 melanoma) | GI50 (SK-MEL-5 melanoma) | TGI (SK-MEL-5 melanoma) | GI50 (OVCAR-5 ovarian) | TGI (OVCAR-5 ovarian) | GI50 (HCT-15 colon) | TGI (HCT-15 colon) | GI50 (MDA-MB-231 breast) | TGI (MDA-MB-231 breast) | GI50 (NCI-H522 lung) | TGI (NCI-H522 lung)
1 | CCCCN(CCCC)CCCn1c(=O)c2c3ccccc3n(C)c2n2nnc(-c3ccccc3)c12 | 65.3 µM | > 100 µM | 1.9 µM | 22.4 µM | > 100 µM | > 100 µM | 31.9 µM | > 100 µM | 22.3 µM | > 100 µM | 20.7 µM | > 100 µM | 36.6 µM | > 100 µM | – | –
2 | CNC(=O)Oc1cc(C)c(/C=C/c2cncc(C(=O)NC)c2)c(C)c1 | > 21.6 µM | > 25 µM | > 25 µM | > 25 µM | 18.8 µM | > 25 µM | > 22.1 µM | > 25 µM | > 25 µM | > 25 µM | > 25 µM | > 25 µM | > 25 µM | > 25 µM | > 23.4 µM | > 25 µM
3 | c1ccc(CN=C(NCc2ccccc2)NCc2ccccc2)cc1 | 11.9 µM | 27.5 µM | 10.7 µM | 27.3 µM | 14.8 µM | 29.2 µM | 3.95 µM | 14.6 µM | 10.1 µM | 24.5 µM | 14.3 µM | > 100 µM | 10.6 µM | 25.4 µM | 8.35 µM | 21.3 µM
4 | CCOC(=O)/C(=C(/C)NCC(C)C)c1cc(O)c(O)c2c(C)cc(=O)[nH]c12 | 5.52 µM | 85.1 µM | 9.18 µM | 68.3 µM | 34.7 µM | > 100 µM | 11.1 µM | > 100 µM | 64.7 µM | > 100 µM | 2.2 µM | > 100 µM | 4 µM | 94.1 µM | 3.02 µM | 51.6 µM
5 | COc1ccc(OC)c(-c2cc(=O)c3c(OC)c(OC)c(OC)c(OC)c3o2)c1 | – | > 100 µM | – | > 100 µM | – | > 100 µM | – | 39.1 µM | – | > 100 µM | – | 77.5 µM | – | > 100 µM | – | 46.4 µM
6 | COC(=O)[C@H](Cc1ccc(O)cc1)NC(=O)[C@@H](OC)[C@@H]1Cc2cc3cc(OC4CC(OC5CC(O)C(O)C(C)O5)C(O)C(C)O4)c(C)c(O)c3c(O)c2C(=O)[C@H]1OC1CC(OC2CC(OC3CC(C)(O)C(O)C(C)O3)C(O)C(C)O2)C(O)C(C)O1 (stereo not given in full) | 0.0639 µM | 1.97 µM | 0.793 µM | > 25 µM | 0.0348 µM | 0.598 µM | 0.0428 µM | 0.448 µM | 0.207 µM | > 25 µM | 1.95 µM | > 25 µM | 0.196 µM | > 25 µM | 0.0584 µM | > 25 µM
7 | C/C(=C\COc1c2c(cc3c1CCO3)OC1(C=C2)OC(CC/C(C)=C/COc2c3ccoc3cc3oc(=O)ccc23)C(C)(C)O1)CCC(O)C(C)(C)O (stereo not given) | 63.5 µM | > 100 µM | 78.8 µM | > 100 µM | 16.9 µM | > 100 µM | 8.85 µM | > 100 µM | 80.2 µM | > 100 µM | 85 µM | > 100 µM | 7.59 µM | > 100 µM | 24.3 µM | > 100 µM
8 | CN(C)CCOC(c1ccccc1)c1ccccc1 | – | – | 45.9 µM | 59.7 µM and > 100 µM | 18.1 µM | 35.3 µM and > 100 µM | 15.7 µM | 28.2 µM and > 100 µM | 36.7 µM | 52.4 µM and > 100 µM | 36.7 µM | 51.5 µM and > 100 µM | 15.6 µM | 45.2 µM and > 100 µM | 25.6 µM | 44.3 µM and > 100 µM
9 | Cc1ccc(-c2nc(N3CCCNCC3)c3oc(-c4ccccc4)nc3n2)cc1 | 1.79 µM | 3.26 µM | 1.8 µM | 3.2 µM | 1.85 µM | 3.39 µM | 1.6 µM | 3.03 µM | 1.9 µM | 3.38 µM | 1.4 µM | 2.77 µM | 1.77 µM | 3.27 µM | 1.72 µM | 3.29 µM
10 | CCc1ccc2c(c1)N(CCO)C1=C(C(=O)OC1)C2c1cccc(Cl)c1 (stereo not given) | 0.488 µM | 11.4 µM | 6.69 µM | 28.8 µM | 0.613 µM | 17.5 µM | 0.357 µM | 7.56 µM | 4.61 µM | 23.4 µM | 0.605 µM | 17.9 µM | 1.66 µM | 15.3 µM | 0.242 µM | 2.76 µM
11 | CCc1cc2c(cc1N1CCC(N3CCOCC3)CC1)C(C)(C)c1[nH]c3cc(C#N)ccc3c1C2=O | 1.8 µM and 1.58 µM and 1.62 µM | 3.92 µM and 3.43 µM and 3.86 µM | 1.66 µM and 1.71 µM and 1.42 µM | 3.61 µM and 3.95 µM and 3.05 µM | 1.95 µM and 1.87 µM and 2.32 µM | 4.48 µM and 4.04 µM and 6.75 µM | 1.12 µM and 1.5 µM and 3 µM | 19.2 µM and 14.2 µM and > 10 µM | 1.52 µM and 1.29 µM and 1.93 µM | 19.3 µM and 9.3 µM and > 10 µM | 2.02 µM and 1.35 µM and 1.14 µM | > 33.4 µM and 10.6 µM and 3.75 µM | 1.53 µM and 1.71 µM and 2.11 µM | 5.21 µM and 4.65 µM and 6.37 µM | 1.17 µM and 1.69 µM and 1.48 µM | 3.81 µM and 4.88 µM and 5.85 µM
12 | CC/C(=C(/c1ccc(O)cc1)c1ccc(OCCN2CCCCC2)cc1)c1ccc(OC)cc1 | 1.66 µM | 3.19 µM | 14.7 µM | 29.2 µM | 1.78 µM | 3.48 µM | 1.79 µM | 3.21 µM | 3.25 µM | 14.8 µM | 1.45 µM | 5.46 µM | 1.61 µM | 3.84 µM | 3.41 µM | 13.7 µM
13 | CCN(CC)CCNc1cc(-c2cccc(OC(F)(F)F)c2)nc2ccc(N3CCCC3)cc12 | 1.68 µM and 1.74 µM and 1.79 µM | 3.2 µM and 3.32 µM and 3.36 µM | 2.06 µM and 1.87 µM and 2.31 µM | 4.5 µM and 3.49 µM and 5.73 µM | 1.66 µM and 1.9 µM and 1.74 µM | 3.16 µM and 3.38 µM and 3.17 µM | 1.63 µM and 1.91 µM and 1.7 µM | 2.99 µM and 3.35 µM and 3.17 µM | 1.94 µM and 2.24 µM | 3.93 µM and 3.83 µM and 6.12 µM | 1.46 µM and 1.38 µM and 1.73 µM | 3.17 µM and 2.84 µM and 3.71 µM | 1.68 µM and 1.65 µM and 1.5 µM | 3.27 µM and 3.31 µM and 3.13 µM | 1.88 µM and 1.64 µM and 1.92 µM | 3.63 µM and 3.24 µM and 4 µM
14 | C=C(CN1CCN(c2cccc(C(F)(F)F)n2)CC1)c1ccc(C(=S)Nc2ccccc2N)cc1 | 5.72 µM | > 100 µM | 3.13 µM | > 100 µM | 6.95 µM | 42.1 µM | 1.46 µM | 3.17 µM | 3.67 µM | > 100 µM | 4.11 µM | > 100 µM | 2.52 µM | 8.9 µM | 3.01 µM | 31.4 µM
15 | CC1(C)CCC(C)(C)c2c1ccc(O)c2Cc1c(O)ccc2c1C(C)(C)CCC2(C)C | – | 4.05 µM | – | 3.87 µM | – | 4.93 µM | – | 3.51 µM | – | 4.56 µM | – | 3.98 µM | – | 3.22 µM | – | 4.04 µM
